Experimental data reported in the NIST ThermoML archive (doi:10.1021/je060271a).
Values joined by “and” are separate entries in the source; they are usually repeats but may differ in a detail not shown here. Equal values may be shown once. ± gives the expanded uncertainty stated by the source.

Conditions: 343.16 K, Liquid, Vibrating tube method

## CCCCCC(=O)OCC(COC(=O)CCCCC)(COC(=O)CCCCC)COC(=O)CCCCC [pentaerythritol tetrahexanoate]
12946 kPa
  mass density: 966.8 ± 1.2 kg/m3
12969 kPa
  mass density: 966.9 ± 1.2 kg/m3
13446 kPa
  mass density: 967.2 ± 1.2 kg/m3
13485 kPa
  mass density: 967.3 ± 1.2 kg/m3
13510 kPa
  mass density: 967.1 ± 1.2 kg/m3
13521 kPa
  mass density: 967.2 ± 1.2 kg/m3
13524 kPa
  mass density: 967.2 ± 1.2 kg/m3
13527 kPa
  mass density: 967.3 ± 1.2 kg/m3
13530 kPa
  mass density: 967.2 ± 1.2 kg/m3
13534 kPa
  mass density: 967.1 ± 1.2 kg/m3
13539 kPa
  mass density: 967.2 ± 1.2 kg/m3
13542 kPa
  mass density: 967.2 ± 1.2 kg/m3
13545 kPa
  mass density: 967.2 ± 1.2 kg/m3
13548 kPa
  mass density: 967.2 ± 1.2 kg/m3
13550 kPa
  mass density: 967.1 ± 1.2 kg/m3
13554 kPa
  mass density: 967.3 ± 1.2 kg/m3
13556 kPa
  mass density: 967.3 ± 1.2 kg/m3
13562 kPa
  mass density: 967.2 ± 1.2 kg/m3
13571 kPa
  mass density: 967.4 ± 1.2 kg/m3
13578 kPa
  mass density: 967.2 ± 1.2 kg/m3
13593 kPa
  mass density: 967.3 ± 1.2 kg/m3
13604 kPa
  mass density: 967.2 ± 1.2 kg/m3 and 967.4 ± 1.2 kg/m3
13605 kPa
  mass density: 967.3 ± 1.2 kg/m3 and 967.2 ± 1.2 kg/m3
13606 kPa
  mass density: 967.2 ± 1.2 kg/m3 and 967.3 ± 1.2 kg/m3
13607 kPa
  mass density: 967.2 ± 1.2 kg/m3
13608 kPa
  mass density: 967.2 ± 1.2 kg/m3 and 967.3 ± 1.2 kg/m3 and 967 ± 1.2 kg/m3
13609 kPa
  mass density: 967.3 ± 1.2 kg/m3
13610 kPa
  mass density: 967.3 ± 1.2 kg/m3
13612 kPa
  mass density: 967.2 ± 1.2 kg/m3
13620 kPa
  mass density: 967.2 ± 1.2 kg/m3
13632 kPa
  mass density: 967.3 ± 1.2 kg/m3
13650 kPa
  mass density: 967.3 ± 1.2 kg/m3
13671 kPa
  mass density: 967.3 ± 1.2 kg/m3
13695 kPa
  mass density: 967.3 ± 1.2 kg/m3
13719 kPa
  mass density: 967.4 ± 1.2 kg/m3
13749 kPa
  mass density: 967.3 ± 1.2 kg/m3
13774 kPa
  mass density: 967.4 ± 1.2 kg/m3
13798 kPa
  mass density: 967.5 ± 1.2 kg/m3
13828 kPa
  mass density: 967.5 ± 1.2 kg/m3
13853 kPa
  mass density: 967.4 ± 1.2 kg/m3
13878 kPa
  mass density: 967.4 ± 1.2 kg/m3
13960 kPa
  mass density: 967.5 ± 1.2 kg/m3
14011 kPa
  mass density: 967.6 ± 1.2 kg/m3
14041 kPa
  mass density: 967.5 ± 1.2 kg/m3
14066 kPa
  mass density: 967.5 ± 1.2 kg/m3
14096 kPa
  mass density: 967.6 ± 1.2 kg/m3
14122 kPa
  mass density: 967.7 ± 1.2 kg/m3
14146 kPa
  mass density: 967.7 ± 1.2 kg/m3
14176 kPa
  mass density: 967.7 ± 1.2 kg/m3
14201 kPa
  mass density: 967.5 ± 1.2 kg/m3
14227 kPa
  mass density: 967.6 ± 1.2 kg/m3
14310 kPa
  mass density: 967.7 ± 1.2 kg/m3
14444 kPa
  mass density: 967.9 ± 1.2 kg/m3
14501 kPa
  mass density: 967.9 ± 1.2 kg/m3
14527 kPa
  mass density: 967.9 ± 1.2 kg/m3
14558 kPa
  mass density: 967.9 ± 1.2 kg/m3
14584 kPa
  mass density: 967.8 ± 1.2 kg/m3
14611 kPa
  mass density: 967.9 ± 1.2 kg/m3
14643 kPa
  mass density: 967.9 ± 1.2 kg/m3
14670 kPa
  mass density: 968 ± 1.2 kg/m3
14696 kPa
  mass density: 968 ± 1.2 kg/m3
14723 kPa
  mass density: 967.9 ± 1.2 kg/m3
14870 kPa
  mass density: 968.1 ± 1.2 kg/m3
14897 kPa
  mass density: 968.1 ± 1.2 kg/m3
14930 kPa
  mass density: 968.2 ± 1.2 kg/m3
14958 kPa
  mass density: 968.2 ± 1.2 kg/m3
14985 kPa
  mass density: 968.3 ± 1.2 kg/m3
15019 kPa
  mass density: 968.2 ± 1.2 kg/m3
15047 kPa
  mass density: 968.3 ± 1.2 kg/m3
15080 kPa
  mass density: 968.3 ± 1.2 kg/m3
15108 kPa
  mass density: 968.2 ± 1.2 kg/m3
15136 kPa
  mass density: 968.3 ± 1.2 kg/m3
15164 kPa
  mass density: 968.3 ± 1.2 kg/m3
15198 kPa
  mass density: 968.4 ± 1.2 kg/m3
15226 kPa
  mass density: 968.5 ± 1.2 kg/m3
15255 kPa
  mass density: 968.4 ± 1.2 kg/m3
15642 kPa
  mass density: 968.6 ± 1.2 kg/m3
15668 kPa
  mass density: 968.6 ± 1.2 kg/m3
15694 kPa
  mass density: 968.7 ± 1.2 kg/m3
15725 kPa
  mass density: 968.7 ± 1.2 kg/m3
15751 kPa
  mass density: 968.8 ± 1.2 kg/m3
15777 kPa
  mass density: 968.7 ± 1.2 kg/m3
15808 kPa
  mass density: 968.8 ± 1.2 kg/m3
15834 kPa
  mass density: 968.8 ± 1.2 kg/m3
15864 kPa
  mass density: 968.9 ± 1.2 kg/m3
15891 kPa
  mass density: 968.9 ± 1.2 kg/m3
15916 kPa
  mass density: 968.8 ± 1.2 kg/m3
15943 kPa
  mass density: 969 ± 1.2 kg/m3
15974 kPa
  mass density: 968.8 ± 1.2 kg/m3
16000 kPa
  mass density: 969 ± 1.2 kg/m3
16057 kPa
  mass density: 969 ± 1.2 kg/m3
16359 kPa
  mass density: 969 ± 1.2 kg/m3
16386 kPa
  mass density: 969.2 ± 1.2 kg/m3
16412 kPa
  mass density: 969.2 ± 1.2 kg/m3
16439 kPa
  mass density: 969.4 ± 1.2 kg/m3
16472 kPa
  mass density: 969.2 ± 1.2 kg/m3
16494 kPa
  mass density: 969.2 ± 1.2 kg/m3
16872 kPa
  mass density: 969.5 ± 1.2 kg/m3
16899 kPa
  mass density: 969.5 ± 1.2 kg/m3
16931 kPa
  mass density: 969.5 ± 1.2 kg/m3
16957 kPa
  mass density: 969.5 ± 1.2 kg/m3
16982 kPa
  mass density: 969.7 ± 1.2 kg/m3
17013 kPa
  mass density: 969.6 ± 1.2 kg/m3
17038 kPa
  mass density: 969.6 ± 1.2 kg/m3
17064 kPa
  mass density: 969.6 ± 1.2 kg/m3
17094 kPa
  mass density: 969.8 ± 1.2 kg/m3
17120 kPa
  mass density: 969.7 ± 1.2 kg/m3
17146 kPa
  mass density: 969.7 ± 1.2 kg/m3
17177 kPa
  mass density: 969.8 ± 1.2 kg/m3
17203 kPa
  mass density: 969.7 ± 1.2 kg/m3
17229 kPa
  mass density: 969.8 ± 1.2 kg/m3
17260 kPa
  mass density: 969.7 ± 1.2 kg/m3
17286 kPa
  mass density: 969.9 ± 1.2 kg/m3
17312 kPa
  mass density: 969.7 ± 1.2 kg/m3
17344 kPa
  mass density: 969.7 ± 1.2 kg/m3
17371 kPa
  mass density: 969.9 ± 1.2 kg/m3
17398 kPa
  mass density: 969.9 ± 1.2 kg/m3
17430 kPa
  mass density: 969.9 ± 1.2 kg/m3
19111 kPa
  mass density: 971.1 ± 1.2 kg/m3
19142 kPa
  mass density: 970.9 ± 1.2 kg/m3
19168 kPa
  mass density: 971.1 ± 1.2 kg/m3
19194 kPa
  mass density: 971.2 ± 1.2 kg/m3
19226 kPa
  mass density: 971.2 ± 1.2 kg/m3
19252 kPa
  mass density: 971.1 ± 1.2 kg/m3
19282 kPa
  mass density: 971.1 ± 1.2 kg/m3
19307 kPa
  mass density: 971.2 ± 1.2 kg/m3
19331 kPa
  mass density: 971.4 ± 1.2 kg/m3
19353 kPa
  mass density: 971.2 ± 1.2 kg/m3
19375 kPa
  mass density: 971.2 ± 1.2 kg/m3
19400 kPa
  mass density: 971.3 ± 1.2 kg/m3
19422 kPa
  mass density: 971.2 ± 1.2 kg/m3
19443 kPa
  mass density: 971.3 ± 1.2 kg/m3
19469 kPa
  mass density: 971.4 ± 1.2 kg/m3
19491 kPa
  mass density: 971.3 ± 1.2 kg/m3
19512 kPa
  mass density: 971.3 ± 1.2 kg/m3
19539 kPa
  mass density: 971.3 ± 1.2 kg/m3
19561 kPa
  mass density: 971.4 ± 1.2 kg/m3
19583 kPa
  mass density: 971.4 ± 1.2 kg/m3
19609 kPa
  mass density: 971.4 ± 1.2 kg/m3
19868 kPa
  mass density: 971.6 ± 1.2 kg/m3
19886 kPa
  mass density: 971.6 ± 1.2 kg/m3
19908 kPa
  mass density: 971.6 ± 1.2 kg/m3
19925 kPa
  mass density: 971.7 ± 1.2 kg/m3
19941 kPa
  mass density: 971.7 ± 1.2 kg/m3
